Measured values published in patent publication US20100272680A1, “Piperidinyl Cyclic Amido Antiviral Agents” (priority 2009, published 2010).

Columns and labels:
HCV Genotype 1B Replicon = assay: Replicon assay, genotype 1b subgenomic replicon (ET cell line), luciferase readout; assay type: cell-based; settings: Hepatitis C virus, 48 h, Table 3; luciferase activity after 48 hours
Method in brief: (§1)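 EC50 values came from four-parameter logistic fits of 10-point dose responses (3–4-fold steps, final 0.03–50 μM, 0.5–1% DMSO), normalized against no-compound and no-cell controls. Firefly luciferase was read 48 h after plating 0.5×10^4 replicon cells/well, 1b ET or 1a Apath-derived line.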

HCV Genotype 1A Replicon = assay: Replicon assay, genotype 1a subgenomic replicon, luciferase readout; assay type: cell-based; settings: Hepatitis C virus, 48 h, Table 3; luciferase activity after 48 hours
Method in brief: as §1

Structure (SMILES) | EC50 (HCV Genotype 1B Replicon) | EC50 (HCV Genotype 1A Replicon)
C[C@@H]1COC(=O)N1C1CCN(C(=O)c2nc3c(C(F)(F)F)cc(-c4ccoc4)cn3c2Cl)CC1 [Compound 182, (4R)-3-(1-{[3-chloro-6-(3-furanyl)-8-(trifluoromethyl)imidazo[1,2-a]pyridin-2-yl]carbonyl}-4-piperidinyl)-4-methyl-1,3-oxazolidin-2-one] | 0.66 µM | 0.13 µM
CC1(N2CCOC2=O)CCN(C(=O)c2nc3c(C(F)(F)F)cc(-c4ccoc4)cn3c2Cl)CC1 [Compound 183, 3-(1-{[3-chloro-6-(3-furanyl)-8-(trifluoromethyl)imidazo[1,2-a]pyridin-2-yl]carbonyl}-4-methyl-4-piperidinyl)-1,3-oxazolidin-2-one] | 4.47 µM | ≥ 5.01 µM
C[C@H]1CN(C2CCN(C(=O)c3nc4c(C(F)(F)F)cc(-c5ccoc5)cn4c3Cl)CC2)C(=O)O1 [Compound 184, (5S)-3-(1-{[3-chloro-6-(3-furanyl)-8-(trifluoromethyl)imidazo[1,2-a]pyridin-2-yl]carbonyl}-4-piperidinyl)-5-methyl-1,3-oxazolidin-2-one] | 0.08 µM | 0.22 µM
C[C@@H]1CN(C2CCN(C(=O)c3nc4c(C(F)(F)F)cc(-c5ccoc5)cn4c3Cl)CC2)C(=O)O1 [Compound 185, (5R)-3-(1-{[3-chloro-6-(3-furanyl)-8-(trifluoromethyl)imidazo[1,2-a]pyridin-2-yl]carbonyl}-4-piperidinyl)-5-methyl-1,3-oxazolidin-2-one] | 1.55 µM | 1.48 µM
O=C(c1nc2c(C(F)(F)F)cc(-c3ccoc3)cn2c1Cl)N1CCC(n2ccoc2=O)CC1 [Compound 186, 3-(1-{[3-chloro-6-(3-furanyl)-8-(trifluoromethyl)imidazo[1,2-a]pyridin-2-yl]carbonyl}-4-piperidinyl)-1,3-oxazol-2(3H)-one] | 0.02 µM | 0.01 µM
Nc1cc(C(F)(F)F)c2nc(C(=O)N3CCC(N4CCOC4=O)CC3)c(Cl)n2c1 [Compound 187, 3-(1-{[6-amino-3-chloro-8-(trifluoromethyl)imidazo[1,2-a]pyridin-2-yl]carbonyl}-4-piperidinyl)-1,3-oxazolidin-2-one] | 1.62 µM | 4.68 µM
C[C@@H]1OC(=O)N(C2CCN(C(=O)c3nc4c(C(F)(F)F)cc(-c5ccoc5)cn4c3Cl)CC2)C1=O [Compound 188, (5S)-3-(1-{[3-chloro-6-(3-furanyl)-8-(trifluoromethyl)imidazo[1,2-a]pyridin-2-yl]carbonyl}-4-piperidinyl)-5-methyl-1,3-oxazolidine-2,4-dione] | 0.06 µM | 0.19 µM
C[C@@H]1OC(=O)N(C2CCN(C(=O)c3nc4c(C(F)(F)F)cc(C5CC5)cn4c3Cl)CC2)C1=O [Compound 189, (5S)-3-(1-{[3-chloro-6-cyclopropyl-8-(trifluoromethyl)imidazo[1,2-a]pyridin-2-yl]carbonyl}-4-piperidinyl)-5-methyl-1,3-oxazolidine-2,4-dione] | 0.03 µM | 0.22 µM
C[C@@H]1OC(=O)N(C2CCN(C(=O)c3nc4c(C(F)(F)F)cc(Br)cn4c3Cl)CC2)C1=O [Compound 190, (5S)-3-(1-{[6-bromo-3-chloro-8-(trifluoromethyl)imidazo[1,2-a]pyridin-2-yl]carbonyl}-4-piperidinyl)-5-methyl-1,3-oxazolidine-2,4-dione] | 0.07 µM | 1.5 µM
C[C@H]1OC(=O)N(C2CCN(C(=O)c3nc4c(C(F)(F)F)cc(-c5ccoc5)cn4c3Cl)CC2)C1=O [Compound 191, (5R)-3-(1-{[3-chloro-6-(3-furanyl)-8-(trifluoromethyl)imidazo[1,2-a]pyridin-2-yl]carbonyl}-4-piperidinyl)-5-methyl-1,3-oxazolidine-2,4-dione] | 0.04 µM | 0.21 µM
C[C@H]1OC(=O)N(C2CCN(C(=O)c3nc4c(C(F)(F)F)cc(C5CC5)cn4c3Cl)CC2)C1=O [Compound 192, (5R)-3-(1-{[3-chloro-6-cyclopropyl-8-(trifluoromethyl)imidazo[1,2-a]pyridin-2-yl]carbonyl}-4-piperidinyl)-5-methyl-1,3-oxazolidine-2,4-dione] | 0.02 µM | 0.28 µM
C[C@H]1OC(=O)N(C2CCN(C(=O)c3nc4c(C(F)(F)F)cc(Br)cn4c3Cl)CC2)C1=O [Compound 193, (5R)-3-(1-{[6-bromo-3-chloro-8-(trifluoromethyl)imidazo[1,2-a]pyridin-2-yl]carbonyl}-4-piperidinyl)-5-methyl-1,3-oxazolidine-2,4-dione] | 0.09 µM | 0.77 µM
O=C(c1nc2c(C(F)(F)F)cc(I)cn2c1Br)N1CCC(N2CCOC2=O)CC1 [Compound 194, 3-(1-{[3-bromo-6-iodo-8-(trifluoromethyl)imidazo[1,2-a]pyridin-2-yl]carbonyl}-4-piperidinyl)-1,3-oxazolidin-2-one] | 0.03 µM | 0.03 µM
O=C(c1nc2c(C(F)(F)F)cc(I)cn2c1Br)N1CCC(N2C(=O)COC2=O)CC1 [Compound 195, 3-(1-{[3-bromo-6-iodo-8-(trifluoromethyl)imidazo[1,2-a]pyridin-2-yl]carbonyl}-4-piperidinyl)-1,3-oxazolidine-2,4-dione] | 0.03 µM | 0.05 µM
CC(C)c1cc(C(F)(F)F)c2nc(C(=O)N3CCC(N4CCOC4=O)CC3)cn2c1 [Compound 196, 3-(1-{[6-(1-methylethyl)-8-(trifluoromethyl)imidazo[1,2-a]pyridin-2-yl]carbonyl}-4-piperidinyl)-1,3-oxazolidin-2-one] | 0.96 µM | 1.19 µM
O=C(c1nc2c(C(F)(F)F)cc(C3CC3)cn2c1Br)N1CCC(N2CCOC2=O)CC1 [Compound 197, 3-(1-{[3-bromo-6-cyclopropyl-8-(trifluoromethyl)imidazo[1,2-a]pyridin-2-yl]carbonyl}-4-piperidinyl)-1,3-oxazolidin-2-one] | 0.01 µM | 0.01 µM
CC(=O)Nc1cc(C(F)(F)F)c2nc(C(=O)N3CCC(N4CCOC4=O)CC3)c(Cl)n2c1 [Compound 198, N-[3-chloro-2-{[4-(2-oxo-1,3-oxazolidin-3-yl)-1-piperidinyl]carbonyl}-8-(trifluoromethyl)imidazo[1,2-a]pyridin-6-yl]acetamide] | ≥ 5.01 µM | ≥ 5.01 µM
O=C(c1nc2c(C(F)(F)F)cc(-c3ccoc3)cn2c1Cl)N1CCC(n2cn[nH]c2=O)CC1 [Compound 199, 4-(1-{[3-chloro-6-(3-furanyl)-8-(trifluoromethyl)imidazo[1,2-a]pyridin-2-yl]carbonyl}-4-piperidinyl)-2,4-dihydro-3H-1,2,4-triazol-3-one] | 5.37 µM | 4.79 µM
O=C(c1nc2c(C(F)(F)F)cc(C3CC3)cn2c1Cl)N1CCC(N2C(=O)CCC2=O)CC1 [Compound 200, 1-(1-{[3-chloro-6-cyclopropyl-8-(trifluoromethyl)imidazo[1,2-a]pyridin-2-yl]carbonyl}-4-piperidinyl)-2,5-pyrrolidinedione] | 0.03 µM | 0.17 µM
O=C(c1nc2c(C(F)(F)F)cc(C3CC3)cn2c1Cl)N1CCC(N2CCCC2=O)CC1 [Compound 201, 1-(1-{[3-chloro-6-cyclopropyl-8-(trifluoromethyl)imidazo[1,2-a]pyridin-2-yl]carbonyl}-4-piperidinyl)-2-pyrrolidinone] | 0.03 µM | 0.1 µM
O=C(c1nc2c(C(F)(F)F)cc(C3CC3)cn2c1Cl)N1CCC(N2C(=O)COC2=O)CC1 [Compound 202, 3-(1-{[3-chloro-6-cyclopropyl-8-(trifluoromethyl)imidazo[1,2-a]pyridin-2-yl]carbonyl}-4-piperidinyl)-1,3-oxazolidine-2,4-dione] | 0.01 µM | 0.02 µM
O=C(c1cn2cc(-c3ccoc3)cc(C(F)(F)F)c2n1)N1CCC(N2CCOC2=O)CC1 [Compound 203, 3-(1-{[6-(3-furanyl)-8-(trifluoromethyl)imidazo[1,2-a]pyridin-2-yl]carbonyl}-4-piperidinyl)-1,3-oxazolidin-2-one] | 2.34 µM | 0.32 µM
CC1(C)CN(C(=O)c2nc3c(C(F)(F)F)cc(-c4ccoc4)cn3c2Cl)CCC1N1CCOC1=O (centres unmarked) [Compound 204, 3-(1-{[3-chloro-6-(3-furanyl)-8-(trifluoromethyl)imidazo[1,2-a]pyridin-2-yl]carbonyl}-3,3-dimethyl-4-piperidinyl)-1,3-oxazolidin-2-one] | 0.3 µM | 0.04 µM
CC1(C)CC(N2CCOC2=O)CCN1C(=O)c1nc2c(C(F)(F)F)cc(-c3ccoc3)cn2c1Cl (centres unmarked) [Compound 211, 3-(1-{[3-chloro-6-(3-furanyl)-8-(trifluoromethyl)imidazo[1,2-a]pyridin-2-yl]carbonyl}-2,2-dimethyl-4-piperidinyl)-1,3-oxazolidin-2-one] | 0.34 µM | 0.58 µM
N#Cc1cc(C(F)(F)F)c2nc(C(=O)N3CCC(N4CCOC4=O)CC3)c(Cl)n2c1 [Compound 239, 3-chloro-2-{[4-(2-oxo-1,3-oxazolidin-3-yl)-1-piperidinyl]carbonyl}-8-(trifluoromethyl)imidazo[1,2-a]pyridine-6-carbonitrile] | 7.94 µM | 0.8 µM
